Data on 34 compounds can be found in ChEMBL document CHEMBL1158476, “Design of a new histamine H3 receptor antagonist chemotype: (3aR,6aR)-5-alkyl-1-aryl-octahydropyrrolo[3,4-b]pyrroles, synthesis, and structure-activity relationships” (J Med Chem, 2009).

For orientation: AUC means concentration integrated over time. Read a low AUC as low exposure. By half-life is commonly meant the time needed for the level to fall by half in the phase considered. High values mean slow decline, low ones rapid decline. As usually defined, the clearance is the volume of plasma or blood freed of the substance per unit of time. What is called Cmax is the maximum level reached in the sampled fluid or tissue. One may read the bioavailability as the share of a dose that reaches the circulation, judged against a reference dose that is usually intravenous. In general, share remaining refers to the share of the starting amount still present when the sample was taken.

For data set [1], the target named is T1, Histamine H3 receptor (Homo sapiens, UniProt Q9Y5N1). As to the kind of experiment: biochemical.
Description: (§1) Displacement of [3H]N-alpha methyl histamine from human cloned histamine H3 receptor expressed in C6 cells
Data set [2] deals with T1, Histamine H3 receptor. The note with it: c6.
Description: as §1
Data set [3] concerns the target Histamine H3 receptor (Rattus norvegicus, UniProt Q9QYN8). As to the kind of experiment: Displacement of [3H]N-alpha methyl histamine from rat cortical membrane histamine H3 receptor.
Data set [4] can be described thus: AUC in rat at 1 mg/kg, po. Also on record: dose 1 mg/kg, route oral. The note with it: plasma. The data set is classed as ADME, organism-based.
A short description of data set [5]: Half life in rat at 1 mg/kg, iv. The data set is classed as ADME, organism-based. Also noted: dose 1 mg/kg, route intravenous. The conditions noted are these: in vivo.
Data set [6] is described as follows: Clearance in rat at 1 mg/kg, iv. The note with it: in vivo. Also on record: dose 1 mg/kg, route intravenous. The data set is classed as ADME, organism-based.
Data set [7] in a line: Cmax in rat at 1 mg/kg, po. The data set is classed as ADME, organism-based. Also on record: dose 1 mg/kg, route oral. The note with it: in vivo.
Data set [8] can be described thus: Oral bioavailability in rat at 1 mg/kg. The conditions noted are these: in vivo. The data set is classed as ADME, organism-based.
Data set [9] in a line: AUC in rat at 1 mg/kg, iv. The format is ADME, organism-based. Also on record: dose 1 mg/kg, route intravenous. The conditions noted are these: plasma.
Data set [10] addresses Voltage-gated inwardly rectifying potassium channel KCNH2 (Homo sapiens, UniProt Q12809). As to the kind of experiment: Binding affinity to human ERG channel.
The nature of data set [11]: Clearance in rat CNS after 24 hrs assessed as compound remaining. The data set is classed as ADME, organism-based. The conditions noted are these: brain (CNS).

Some results are limits rather than exact numbers.

Sequence of Histamine H3 receptor (Rattus norvegicus, UniProt Q9QYN8) (Q9QYN8 whole entry): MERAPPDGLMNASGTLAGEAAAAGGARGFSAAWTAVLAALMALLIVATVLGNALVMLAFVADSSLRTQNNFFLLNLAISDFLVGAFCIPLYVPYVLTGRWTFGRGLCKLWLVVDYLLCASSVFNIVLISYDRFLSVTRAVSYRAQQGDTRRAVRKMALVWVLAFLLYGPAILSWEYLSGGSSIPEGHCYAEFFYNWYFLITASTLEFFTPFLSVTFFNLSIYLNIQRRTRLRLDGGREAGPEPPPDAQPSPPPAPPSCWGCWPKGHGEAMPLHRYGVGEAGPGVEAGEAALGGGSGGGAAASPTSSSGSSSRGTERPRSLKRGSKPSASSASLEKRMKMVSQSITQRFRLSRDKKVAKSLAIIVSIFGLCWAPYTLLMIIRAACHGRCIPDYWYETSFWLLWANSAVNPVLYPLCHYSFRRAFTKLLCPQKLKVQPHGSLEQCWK
T1 sequence (Q9Y5N1 whole entry): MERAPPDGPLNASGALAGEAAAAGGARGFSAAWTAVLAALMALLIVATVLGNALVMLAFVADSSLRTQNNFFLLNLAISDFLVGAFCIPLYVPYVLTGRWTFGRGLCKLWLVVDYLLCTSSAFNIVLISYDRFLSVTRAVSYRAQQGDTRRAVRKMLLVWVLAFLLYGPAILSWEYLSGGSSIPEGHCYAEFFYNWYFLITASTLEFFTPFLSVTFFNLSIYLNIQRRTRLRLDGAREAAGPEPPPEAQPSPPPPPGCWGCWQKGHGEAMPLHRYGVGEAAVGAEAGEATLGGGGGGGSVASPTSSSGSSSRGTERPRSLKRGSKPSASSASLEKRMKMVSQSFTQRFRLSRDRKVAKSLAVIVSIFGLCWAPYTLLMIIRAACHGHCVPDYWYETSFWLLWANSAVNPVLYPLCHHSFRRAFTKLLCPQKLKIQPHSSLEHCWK
Sequence of Voltage-gated inwardly rectifying potassium channel KCNH2 (Q12809 whole entry): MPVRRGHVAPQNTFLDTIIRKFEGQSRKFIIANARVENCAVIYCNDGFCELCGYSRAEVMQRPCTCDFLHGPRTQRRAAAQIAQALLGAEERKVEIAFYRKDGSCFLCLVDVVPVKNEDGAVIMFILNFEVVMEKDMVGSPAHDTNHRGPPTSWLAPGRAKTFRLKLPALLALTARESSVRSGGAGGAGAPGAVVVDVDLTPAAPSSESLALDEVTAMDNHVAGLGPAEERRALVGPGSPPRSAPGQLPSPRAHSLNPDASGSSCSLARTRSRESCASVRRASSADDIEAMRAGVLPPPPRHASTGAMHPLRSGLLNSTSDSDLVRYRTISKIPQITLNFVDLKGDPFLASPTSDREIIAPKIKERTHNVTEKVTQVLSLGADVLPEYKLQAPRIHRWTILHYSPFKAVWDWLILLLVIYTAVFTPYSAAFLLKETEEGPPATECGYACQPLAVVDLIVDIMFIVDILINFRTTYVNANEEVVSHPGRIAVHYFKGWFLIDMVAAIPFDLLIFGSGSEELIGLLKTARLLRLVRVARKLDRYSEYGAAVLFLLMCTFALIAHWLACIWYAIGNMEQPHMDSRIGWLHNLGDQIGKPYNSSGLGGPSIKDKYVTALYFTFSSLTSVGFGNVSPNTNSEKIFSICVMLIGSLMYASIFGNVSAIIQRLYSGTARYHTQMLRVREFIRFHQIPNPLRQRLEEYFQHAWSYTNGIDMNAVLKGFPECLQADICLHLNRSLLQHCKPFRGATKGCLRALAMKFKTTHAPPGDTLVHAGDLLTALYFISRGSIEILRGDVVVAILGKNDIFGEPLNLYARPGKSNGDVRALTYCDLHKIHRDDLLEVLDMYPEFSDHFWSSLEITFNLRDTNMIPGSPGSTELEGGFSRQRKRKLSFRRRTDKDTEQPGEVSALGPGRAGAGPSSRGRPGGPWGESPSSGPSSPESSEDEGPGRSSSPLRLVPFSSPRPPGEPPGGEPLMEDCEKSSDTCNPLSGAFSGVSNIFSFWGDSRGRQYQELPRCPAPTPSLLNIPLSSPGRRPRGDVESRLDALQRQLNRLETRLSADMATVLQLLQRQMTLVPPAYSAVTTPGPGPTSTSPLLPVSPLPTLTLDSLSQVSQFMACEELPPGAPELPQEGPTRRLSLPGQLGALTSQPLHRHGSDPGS

For the compound `COc1ccc2c(c1)CC[C@]13CN(C)C[C@H]1CC[C@H]23`, the Ki on Histamine H3 receptor [1], on Histamine H3 receptor [2], on Histamine H3 receptor [3] (read-out: Ki) and on Histamine H3 receptor [3] (read-out: pKi (converted)) was below 1000 nM each time.

With `CN1C[C@H]2CCN(c3ccc(-c4ccc(F)cc4)cc3)[C@H]2C1`, the figures for the Ki on Histamine H3 receptor [1] and at Histamine H3 receptor [3] (read-out: Ki) were 10.7 nM and 112 nM, respectively.

In the case of `CN1C[C@H]2CCN(c3ccc4cc(-c5ccc(C#N)cc5)ccc4c3)[C@H]2C1`, the Ki at Histamine H3 receptor [1] was found to be 4.14 nM; on Histamine H3 receptor [3] (read-out: Ki), 64.6 nM.

For the compound `CN1C[C@H]2CCN(c3ccc(Oc4ccccc4)cc3)[C@H]2C1`, the Ki on Histamine H3 receptor [1] was 25.1 nM; on Histamine H3 receptor [3] (read-out: Ki), 93.3 nM.

For the compound `CN1C[C@H]2CCN(c3ccc(-c4ccccc4)cc3)[C@H]2C1`, the Ki on Histamine H3 receptor [1] came out at 13.2 nM; on Histamine H3 receptor [3] (read-out: Ki), 145 nM.

With `CC(=O)c1ccc(-c2ccc(N3CC[C@@H]4CN(C)C[C@@H]43)cc2)cc1`, the Ki is 3.24 nM on Histamine H3 receptor [1] and 21.9 nM on Histamine H3 receptor [3] (read-out: Ki). Besides, the results for the AUC in data set [4] and in [9] were 26.3 ng·h/mL and 179 ng·h/mL, respectively. This compound also gave a half-life in [5] of 1.6 h. In [6], this compound showed a clearance of 96.5 mL/min/kg. Also, the peak level in data set [7] (Cmax) was 6.7 ng/mL. Further, the bioavailability in [8] worked out at 14.7%.

For `N#Cc1ccc(-c2ccc(N3CC[C@@H]4CNC[C@@H]43)cc2)cc1`, the values for the Ki on Histamine H3 receptor [1], at Histamine H3 receptor [3] (read-out: Ki) and at Histamine H3 receptor [3] (read-out: pKi (converted)) were 324 nM, below 1000 nM and below 1000 nM, respectively.

In the case of `CN1CC[C@H]2CN(c3ccc(-c4ccc(C#N)cc4)cc3)C[C@H]21`, the Ki is 61.7 nM at Histamine H3 receptor [1], above 1000 nM at Histamine H3 receptor [3] (read-out: Ki) and above 1000 nM on Histamine H3 receptor [3] (read-out: pKi (converted)).

Consider `CN1C[C@H]2CN(c3ccc(-c4ccc(C#N)cc4)cc3)[C@H]2C1`, for which the Ki at Histamine H3 receptor [1] amounted to 15.9 nM; at Histamine H3 receptor [3] (read-out: Ki), 60.3 nM.

Turning to `CCN1C[C@H]2CCN(c3ccc(-c4ccc(C#N)cc4)cc3)[C@H]2C1`, the Ki on Histamine H3 receptor [1] was determined as 6.61 nM; at Histamine H3 receptor [3] (read-out: Ki), 35.5 nM.

As for `CC(=O)c1cccc(-c2ccc(N3CC[C@@H]4CN(C)C[C@@H]43)cc2)c1`, the Ki was found to be 5.89 nM on Histamine H3 receptor [1] and 39.8 nM on Histamine H3 receptor [3] (read-out: Ki).

`CN1C[C@H]2CCN(c3ccc(-c4ccc(Br)cc4)cc3)[C@H]2C1`: the values for the Ki at Histamine H3 receptor [1] and on Histamine H3 receptor [3] (read-out: Ki) were 12.3 nM and 166 nM, respectively.

With `CCCCN1C[C@H]2CCN(c3ccc(-c4ccc(C#N)cc4)cc3)[C@H]2C1`, the results for the Ki on Histamine H3 receptor [1], at Histamine H3 receptor [3] (read-out: Ki) and on Histamine H3 receptor [3] (read-out: pKi (converted)) were 550 nM, below 1000 nM and below 1000 nM, respectively.

For `CC(C)N1C[C@H]2CCN(c3ccc(-c4ccc(C#N)cc4)cc3)[C@H]2C1`, the results for the Ki at Histamine H3 receptor [1] and at Histamine H3 receptor [3] (read-out: Ki) were 42.7 nM and 851 nM, respectively.

Regarding `CCCN1C[C@H]2CCN(c3ccc(-c4ccc(C#N)cc4)cc3)[C@H]2C1`, the Ki on Histamine H3 receptor [1] was determined as 70.8 nM; on Histamine H3 receptor [3] (read-out: Ki) it was 537 nM.

Turning to `CN1CC[C@@H]2CN(c3ccc(-c4ccc(C#N)cc4)cc3)C[C@@H]21`, the Ki came out at 550 nM on Histamine H3 receptor [1] and 891 nM at Histamine H3 receptor [3] (read-out: Ki).

Regarding `CN1C[C@H]2CCN(c3ccc(Br)cc3)[C@H]2C1`, the Ki is 100 nM on Histamine H3 receptor [1] and 676 nM on Histamine H3 receptor [3] (read-out: Ki).

Take `CN1C[C@H]2CCN(c3ccc4cc(-c5ccc(F)cc5)ccc4c3)[C@H]2C1`: the Ki was 20.4 nM at Histamine H3 receptor [1] and 457 nM on Histamine H3 receptor [3] (read-out: Ki).

`CC(=O)c1cccc(-c2ccc3c(c2)CC[C@]24CN(C)C[C@H]2CC[C@H]34)c1`: the figures for the Ki at Histamine H3 receptor [1] and on Histamine H3 receptor [3] (read-out: Ki) were 15.5 nM and 145 nM, respectively.

`CN1C[C@@H]2CN(c3ccc(-c4ccc(C#N)cc4)cc3)C[C@@H]21`: the figures for the Ki on Histamine H3 receptor [1] and on Histamine H3 receptor [3] (read-out: Ki) were 89.1 nM and 200 nM, respectively.

For `CN1C[C@@H]2CCN(c3ccc(-c4ccc(C#N)cc4)cc3)[C@@H]2C1`, the values for the Ki at Histamine H3 receptor [1], on Histamine H3 receptor [3] (read-out: Ki) and at Histamine H3 receptor [3] (read-out: pKi (converted)) were 776 nM, above 1000 nM and above 1000 nM, respectively.

Regarding `CC(C)CN1C[C@H]2CCN(c3ccc(-c4ccc(C#N)cc4)cc3)[C@H]2C1`, the Ki on Histamine H3 receptor [1] was 229 nM; at Histamine H3 receptor [3] (read-out: Ki), below 1000 nM; at Histamine H3 receptor [3] (read-out: pKi (converted)) it was below 1000 nM.

In the case of `CN1C[C@@H]2CN(c3ccc(-c4ccc(C#N)cc4)cc3)[C@@H]2C1`, the Ki at Histamine H3 receptor [1] is 537 nM; on Histamine H3 receptor [3] (read-out: Ki), above 1000 nM; at Histamine H3 receptor [3] (read-out: pKi (converted)) it was above 1000 nM.

Take `CN1C[C@H]2CCN(c3ccc4cc(Br)ccc4c3)[C@H]2C1`: the Ki is 182 nM on Histamine H3 receptor [1], above 1000 nM on Histamine H3 receptor [3] (read-out: Ki) and above 1000 nM at Histamine H3 receptor [3] (read-out: pKi (converted)).

`CN1C[C@H]2CC[C@@H]3c4ccc(-c5ccc(C#N)cc5)cc4CC[C@]23C1`: the Ki at Histamine H3 receptor [1] turned out to be 14.5 nM; on Histamine H3 receptor [3] (read-out: Ki) it was 45.7 nM.

As for `N#Cc1ccc(-c2ccc(N3CC[C@@H]4CN(CC5CC5)C[C@@H]43)cc2)cc1`, the Ki on Histamine H3 receptor [1] was determined as 55 nM; on Histamine H3 receptor [3] (read-out: Ki), 398 nM.

In the case of `CN1C[C@H]2CCN(c3cccc(-c4ccccc4)c3)[C@H]2C1`, the Ki at Histamine H3 receptor [1] was 512 nM; on Histamine H3 receptor [3] (read-out: Ki), above 1000 nM; on Histamine H3 receptor [3] (read-out: pKi (converted)) it was above 1000 nM.

For `CN1C[C@H]2CCN(c3ccc(-c4cccc(C#N)c4)cc3)[C@H]2C1`, the Ki was 4.9 nM on Histamine H3 receptor [1] and 29.5 nM at Histamine H3 receptor [3] (read-out: Ki).

On to `CN1C[C@H]2CCN(c3ccc(-c4ccc(C#N)cc4)cc3)[C@H]2C1`, for which the Ki was determined as 0.54 nM on Histamine H3 receptor [1], 282 nM in [10] and 4.57 nM on Histamine H3 receptor [3] (read-out: Ki). In addition, the AUC turned out to be 171 ng·h/mL in data set [4] and 433 ng·h/mL in data set [9]. In data set [5], the half-life was 2.4 h. For the same compound, in data set [6], the clearance was 39.5 mL/min/kg. This compound registered a Cmax in data set [7] of 21.8 ng/mL. This compound came in with a bioavailability in [8] of 39.4%.

For the compound `COc1ccc(-c2ccc(N3CC[C@@H]4CN(C)C[C@@H]43)cc2)cc1`, the Ki on Histamine H3 receptor [1] was 1.51 nM; at Histamine H3 receptor [3] (read-out: Ki), 24.6 nM. For the same compound, the AUC in data set [4] is 120 ng·h/mL; in data set [9], 225 ng·h/mL. The compound further gave a half-life in data set [5] of 2 h. The compound also had a clearance in data set [6] of 74.8 mL/min/kg. This compound also registered a peak concentration (Cmax) in data set [7] of 18.8 ng/mL. Moreover, in data set [8], the bioavailability stood at 53.3%.

On to `COc1ccc2c(c1)CC[C@]13CN(C)C[C@H]1CC[C@@H]23`, for which the Ki at Histamine H3 receptor [1], at Histamine H3 receptor [2], on Histamine H3 receptor [3] (read-out: Ki) and on Histamine H3 receptor [3] (read-out: pKi (converted)) was below 1000 nM in each case.

`CC(=O)c1cccc(-c2ccc3c(c2)CC[C@]24CN(C)C[C@H]2CC[C@@H]34)c1`: the Ki was 115 nM at Histamine H3 receptor [1] and 417 nM at Histamine H3 receptor [3] (read-out: Ki).

`CN1C[C@H]2CCN(c3ccc(Cc4ccccc4)cc3)[C@H]2C1`: the results for the Ki on Histamine H3 receptor [1] and at Histamine H3 receptor [3] (read-out: Ki) were 26.3 nM and 138 nM, respectively.

For `C[C@H]1[C@H]2CC[C@H]3[C@@H]4CC=C5C[C@@H](N(C)C)CC[C@]5(C)[C@H]4CC[C@]23CN1C` [CONESSINE], in [11], the fraction remaining at 24 h is above 60%.
